Measured values: patent US20220016099A1, “BENZIMIDAZOLE OR BENZOXAZOLE DERIVATIVES FOR PREVENTING AND TREATING CENTRAL NERVOUS SYSTEM DISEASE, DIABETES, AND COMPLICATIONS THEREOF” (TRINUERO, priority 2018, published 2022)

tested on: Nrf2; assay: Nrf2 activity by A549-ARE luciferase assay; type: cell-based; details: A549-ARE cell line, 10 μM of each compound in DMSO; Nrf2 activity (%) of compound relative to DMSO using luciferase assay; read-out: Nrf2 activity
Procedure: Example 1: Method for Measuring Nrf2 Activity of Benzimidazole or Benzoxazole Derivatives Using A549-ARE Luciferase Assay
An assay for Nrf2 activity was performed by modification of the method reported in Ilse M. Beck et al., (2013), European Journal of Pharmacology 715. 1-9.
Specifically, A549-ARE cell line was dispensed into a 96-well plate, and then subjected to treatment with a solution obtained by dissolving 10 μM of each compound in Table 2 in dimethyl sulfoxide (DMSO). On the other hand, Compounds 1 and 13 as shown in Table 2 were obtained from Sigma-Aldrich (US); Compounds 2, 5, 8, 9 12, 15, 18 to 20, 23, 25, 30, and 32 were obtained from Tokyo Chemical Industry Co., Ltd. (JP); Compound 3 was obtained from Labseeker (CN); Compound 4 was obtained from BOC Science (US); Compounds 6 and 7 were obtained from Cambridge (US); Compounds 10, 11, 16, 17, 21, and 22 were obtained from Toronto Research Chemicals (CA); Compound 14 was obtained from Selleckchem (US); Compounds 24, 26, 27, and 31 were obtained from BLD Pharm (CN); Compounds 28 and 33 were obtained from Mcule (US); Compound 29 was obtained from Chemshuttle (US); and Compound 34 was obtained from Alinda (RU).
Thereafter, the 96-well plate was treated with 30 μl of luciferase lysis buffer (90.8 mM K2HPO4, 9.2 mM KH2PO4, 0.1% Triton X-100), and then incubated for 30 minutes or longer so that cell lysis proceeded. The incubated cell lysate was transferred to another 96-well plate (white plate), and then each well was treated with 100 μl of luciferase buffer mixture (20 mM Tricine, 1.07 mM [(MgCO3)4Mg(OH)2.5H2O], 2.67 mM [MgSO4.7H2O], 0.1 mM EDTA, 33.3 mM DTT, 270 μM coenzyme A [CoA], 500 μM D-luciferin, 530 μM ATP). Immediately after the treatment, […] was performed to check Nrf2 activity.

SMILES | activity at 10 µM
COc1ccc2[nH]c(S(=O)(=O)Cc3ncc(C)c(OC)c3C)nc2c1 [Compound 3, omeprazole sulfone] | 0 to 30%
COc1ccc2[nH]c(SCc3ncc(C)c(OC)c3C)nc2c1 [Compound 2, omeprazole sulfide] | 0 to 30%
Cc1c(OCC(F)(F)F)ccnc1C[S+]([O-])c1nc2ccccc2[nH]1 (stereo not drawn) [Compound 8, lansoprazole, reference compound] | > 100%
O=[N+]([O-])c1ccc2[nH]c(=S)[nH]c2c1 [Compound 30, 2-mercapto-5-nitrobenzimidazole] | 0 to 30%
COCCCOc1cc[n+]([O-])c(C[S+]([O-])c2nc3ccccc3[nH]2)c1C (stereo not drawn) [Compound 22, rabeprazole N-oxide] | 70 to 100%
O=c1[nH]c2cc(Cl)c(O)cc2o1 [Compound 31, 6-hydroxychlorzoxazone] | 0 to 30%
COc1ccnc(C[S+]([O-])c2nc3cc(OC(F)F)ccc3[nH]2)c1OC (stereo not drawn) [Compound 14, pantoprazole, reference compound] | 70 to 100%
COCCCOc1ccnc(CSc2nc3ccccc3[nH]2)c1C [Compound 20, rabeprazole sulfide] | > 100%
O=C1Cc2cc(O)ccc2N1 [Compound 27, 5-hydroxyindolin-2-one] | 0 to 30%
COCCCOc1ccnc(CS(=O)(=O)c2nc3ccccc3[nH]2)c1C [Compound 21, rabeprazole sulfone] | 0 to 30%
COc1ccc2[nH]c(=O)oc2c1 [Compound 29, 6-methoxybenzo[d]oxazol-2(3H)-one] | 30 to 70%
FC(F)Oc1ccc2nc(S)[nH]c2c1 [Compound 18, 5-difluoromethoxy-2-mercaptobenzimidazole] | 0 to 30%
O=S(=O)(O)c1ccc2[nH]c(=S)[nH]c2c1 [Compound 25, 2-sulfanyl-1H-benzimidazole-5-sulfonic acid] | 0 to 30%
Cc1c(OCC(F)(F)F)ccnc1CSc1nc2ccccc2[nH]1 [Compound 9, lansoprazole sulfide] | 70 to 100%
O=c1[nH]c2c(Cl)c(Cl)c(Cl)cc2o1 [Compound 28, 4,5,6-trichloro-3H-a,3-benzoxazol-2-one] | 0 to 30%
COc1ccnc(CSc2nc3cc(OC(F)F)ccc3[nH]2)c1OC [Compound 15, pantoprazole sulfide] | 0 to 30%

SMILES | activity at 10 µM
Cc1cccc2[nH]c(=S)[nH]c12 [Compound 24, 4-methyl-1H-benzimidazole-2-thiol] | 0 to 30%
Cn1c(S)nc2ccccc21 [Compound 13, 1-methyl-1H-benzimidazole-2-thiol] | 0 to 30%
COc1ccnc(CS(=O)(=O)c2nc3cc(OC(F)F)ccc3[nH]2)c1OC [Compound 16, pantoprazole sulfone] | 0 to 30%
Cc1c(OCC(F)(F)F)cc[n+]([O-])c1C[S+]([O-])c1nc2ccccc2[nH]1 (stereo not drawn) [Compound 11, lansoprazole N-oxide] | 70 to 100%
COc1ccc2[nH]c([S+]([O-])Cc3ncc(C)c(OC)c3C)nc2c1 (stereo not drawn) [Compound 1, omeprazole, reference compound] | 0 to 30%
COc1ccc2c(c1)nc(S)n2C [Compound 6, 5-methoxy-1-methyl-1H-benzimidazole-2-thiol] | 30 to 70%
COc1ccc2[nH]c(S)nc2c1 [Compound 5, 5-methoxy-2-benzimidazolethiol] | 30 to 70%
S=c1[nH]c2cc3ccccc3cc2[nH]1 [Compound 33, 1,3-dihydrobenzo[f]benzimidazole-2-thione] | 0 to 30%
COc1cc2nc(S)[nH]c2cc1OC [Compound 34, 5,6-dimethoxy-1H-benzo[d]imidazol-2-thiol] | 0 to 30%
S=c1[nH]c2ccc(Cl)cc2[nH]1 [Compound 32, 5-chloro-2-mercaptobenzimidazole] | 70 to 100%
COc1ccc2[nH]c([S+]([O-])Cc3c(C)c(OC)c(C)c[n+]3[O-])nc2c1 (stereo not drawn) [Compound 4, omeprazole N-oxide] | 0 to 30%
COc1ccc2[nH]c(SC)nc2c1 [Compound 7, 5-methoxy-2-(methylthio)-1H-benzimidazole] | 0 to 30%
COc1cc[n+]([O-])c(C[S+]([O-])c2nc3cc(OC(F)F)ccc3[nH]2)c1OC (stereo not drawn) [Compound 17, pantoprazole N-oxide] | 70 to 100%
COCCCOc1ccnc(C[S+]([O-])c2nc3ccccc3[nH]2)c1C (stereo not drawn) [Compound 19, rabeprazole, reference compound] | > 100%
O=c1[nH]c2ccc(Cl)cc2[nH]1 [Compound 26, 5-chloro-1,3-dihydrobenzimidazol-2-one] | 0 to 30%
Cc1c(OCC(F)(F)F)ccnc1CS(=O)(=O)c1nc2ccccc2[nH]1 [Compound 10, lansoprazole sulfone] | 0 to 30%

same assay, conditions: read-out: Nrf2 activity

SMILES | activity at 10 µM
Sc1nc2ccccc2[nH]1 [Compound 12, 2-mercaptobenzimidazole] | 0 to 30%
